Experimental findings from US10323012B2 (priority 2012, dated 2019) are described below.

Like-named read-outs stand apart in the source and are kept apart here.

The nature of data set [1]: Toxicity of 4α-(N-phenyl)miliusate in mice. In kind it is in vivo, BALB/c nude mice. The source says: All animal studies are approved and performed according to Animal Care and Use Guidelines of the Animal Ethics Committee at Hong Kong Baptist University and performed following Animal Care and Use guidelines set by NIH (National Institute of Health, USA). BALB/c nude mice, SPF class, male or female, 7-8 weeks old (average body weight 22 g), are purchased from Charles River Laboratories. Before the experiment, the mice are kept for one week of acclimatization to SPF class laboratory conditions. […] Every other day injections at i.p. sites are scheduled for 21 days. Weights of mice are measured twice a week until the end of the experiment.

Data set [2] relates to HIV/VSV-G virions. Particulars: read-out: Anti-HIV Activity (EC50).
The test system of data set [3] is HIV/VSV-G virions. Nature of the data set: in vitro. The conditions noted are these: human.
For data set [4], the system named is HIV/VSV-G virions. Nature of the data set: microbe, parasite or virus in culture. Particulars: Human immunodeficiency virus 1, A549, in Homo sapiens, 48 h, read-out: Anti-HIV Activity (EC50).
Data set [5] has as its system HIV/HA virions (H5N1 HA and NA). Nature of the data set: microbe, parasite or virus in culture. The conditions noted are these: Human immunodeficiency virus 1, H5N1, A549, in Homo sapiens, 48 h, read-out: Anti-H5N1 Activity (EC50).
For data set [6] the test system is unchanged. Description: in vitro. The conditions noted are these: human, Selective Index (CC50/IC50), anti-H5N1.
The test system is the same in data set [7]. Particulars: human.
Where [8] appears, read: 20 and 40 mg/kg i.p., every other day for 21 days, 10 mice/group.

What is called EC50 is the midpoint of the concentration-response curve. Turning to 4α-(N-Phenyl)miliusate, in data set [1] (setting [8]), the Health of mice result is reported as “all mice remained healthy” and the “Weight loss of mice” value was “no weight loss”. Also, the Toxicity in mice entry in data set [1] (doses of 40 mg/kg) is “no toxicity”. For the same compound, the half-maximal effective concentration (EC50) in the data set on HIV/VSV-G virions [2] is 2.7 µM.

As for 8′,10′-Dihydroxy-miliusate, the EC50 in the data set with HIV/VSV-G virions [2] worked out at 14.4 µM.

For `CC(=O)O[C@@H]1CCC(=O)C2(CC(=O)O[C@@H]2/C=C(\C)CCC=C(C)C)C1` (some centres unmarked) [3,4-Dihydro-miliusate], in the data set on HIV/VSV-G virions [3], the selectivity ratio turned out to be 1. Also, the EC50 with HIV/VSV-G virions [4] is 67 µM.

With 10′-Hydroxy-8′-oxo-miliusate, the EC50 in the data set with HIV/VSV-G virions [2] turned out to be 4.97 µM.

As to `CO[C@@H]1CC(=O)C2(CC(=O)O[C@@H]2/C=C(\C)CCC=C(C)C)C[C@@H]1O` (some centres unmarked) [Miliusane I], in data set [5], the EC50 worked out at 0.71 µM. Also, the selectivity ratio in data set [6] stood at 9.5. Also, in data set [7], the “Selective Index (CC50/IC50), anti-H5N1” value came out at 10.
